# Measurements as given in patent publication US20130178463A1, “ENHANCED TRANSBUCCAL DRUG DELIVERY SYSTEM AND COMPOSITIONS” (Rutgers, The State University of New Jersey, priority 2010, published 2013).
# Structures can show the parent of a compound that is named as a salt. Marks after values point to notes of the source that are not given here.
# Key:
# [1] = in words; drug description; cited from earlier work
# [2] = In vitro transbuccal permeation of LHCl, NHT and DHCl gels (Franz diffusion cells); conditions: for Q8 / Flux: Transbuccal
# Procedure: Buccal mucosa samples were harvested from pig's cheek area and placed below −30° C. The tissue samples were defrosted at room temperature first before use. Then a scalpel blade and a surgical scissor were used to remove the underlying connective tissue and trim the buccal mucosa to about 300 to 400 μm in thickness. Before each evaluation the buccal tissues were submerged in PBS (pH 7.5) for 1 hour.
# Iontophoresis was terminated after 8 hour application.
# [3] = In vitro transdermal permeation of LHCl, NHT and DHCl gels (Franz diffusion cells); conditions: for Flux / Q8: Transdermal; for enhancement effect on transdermal delivery of LHCl / enhancement effect on transdermal delivery of NHT / enhancement effect on transdermal delivery of DHCl: in words, 1 hr. enhancer pretreatment, compared to control
# [4] = Histological study of buccal tissue (H&E, light microscopy); set-up: species or system porcine; conditions: after passive permeation (FIG. 6); light micrographs 40×
# Procedure: The morphological changes in both untreated and treated buccal tissues were evaluated using light microscopy. Buccal membrane samples were sectioned carefully and fixed in 10% buffered formalin for 1 day at room temperature. […] This was followed by immersing in xylene at least three times, and finally embedding in Tissue-Tek O.C.T. compound under dry ice. […] The stained slices were examined under a Nikon Eclipse E 800 light microscope (Micro Optics, Cedar Knolls, N.J.) at 40×. A Nikon Digital Camera (Model DXM 1200) was used to capture images. Images were processed by SPOT™ Imaging Software, Version 5.0 (Diagnostic Instrument, Inc., Sterling Heights, Mich.).
# A histological study was performed to evaluate the integrity of treated and untreated porcine tissues using standard H&E methodology.
# [5] = In vitro transbuccal permeation of 0.5% ODAN.HCl gel with iontophoresis and/or chemical enhancers (Franz diffusion cells)
# Procedure: Buccal mucosa samples with underlying connective tissue were surgically removed from the pig check area and stored under −30° C. for future use. Prior to use, the samples were thawed at room temperature for at least 3 hours. Then the underlying connective tissue was removed using a scalpel blade and the remaining buccal mucosa was then carefully trimmed using surgical scissors to a thickness of about 300-400 μm. The buccal tissues were placed in phosphate buffered saline (PBS) with pH 7.5 for 1 hour prior to use.
# Franz diffusion cells (PermeGear, Hellertown, Pa.) were used for all in vitro permeation studies using buccal tissue under varying conditions: passive (control); 1 hour enhancer pretreatment, 8 hours iontophoresis (0.1, 0.2 and 0.3 mA); and combined treatment of 1 hour enhancer treatment and 8 hours iontophoresis at 0.3 mA, and then passive only up to 24 hrs. All permeation studies were performed at 37° C.
# For passive permeation studies, the Franz cell receptor compartment was filled with PBS solution and stirred at 600 rpm. […] At different time points (0.0, 0.5, 1. 3, 5, 8, 12, 20, 24 hrs), 300 μl sample was withdrawn from receptor compartment for HPLC analysis and immediately replaced with 300 μl of PBS (pH=7.5).
# For iontophoresis, a Phoresor II Auto—Iontophoresis Power Device (Model PM 850) Iomed, Inc., provided 0.1, 0.2 and 0.3 MA for 8 hrs of treatment. […] The cathode (AgCl) was inserted into the receptor compartment. After 8 hours, iontophoresis was discontinued and then the passive-only permeation continued for 16 hrs. The sampling method and time points were the same as for passive and chemical enhancer pretreatment experiments.
# An 8 hour iontophoresis period is referred to herein as Stage I. A post −8 hour iontophoresis period, passive only permeation period is referred to herein as Stage II.
# The cumulative drug amount in the receptor compartment after 8 hrs and 24 hrs was defined as Q8 and Q24 (μg cm^−2), respectively. The enhancement ratio (ER) for flux was calculated as follows:
# Franz diffusion cells were used for all in vitro permeation studies using buccal tissue under varying conditions: passive (control), 1 hour enhancer pretreatment, 8 hrs. iontophoresis (0.1, 0.2 and 0.3 mA), and combined treatment of 1 hr. enhancer pretreatment and 8 hrs. iontophoresis at 0.3 mA, and then passive only up to 24 hrs. All permeation studies performed at 37° C. The procedure for passive permeation studies described above was followed.
# The concentration of ODAN.HCl in the receptor compartment was analyzed by HPLC. […] A C18 column (150×4.6 mm C18 (2) 100 A Luna 5 μm, Phenomenex) with a guard column was used at 25° C.
# [6] = Physicochemical properties stated in the description; conditions: in words; reason for preparing solutions in PG only
# [7] = system: EpiOral™ tissue
# Source text: MTS 3-(4,5-dimethylthiazol-2-yl)-5-(3-carboxymethoxyphenyl)-2-(4-sulfophenyl)-2H-tetrazolium, inner salt) assay was used to evaluate enhancer cytotoxicity in buccal tissues. […] The number of surviving cells is directly proportional to the level of the formazan. The color can then be quantified at 490 nm using a Microplate Power Wave X Scanning Spectrophotometer (Bio-TEK Instruments, Inc., Winooski, Vt.).
# EpiOral™ tissue (ORL-200) was used, which is a multilayered tissue mainly composed of an organized basal layer and multiple non-cornified layers analogous to native human buccal tissue. A 24-well plate containing ORL-200 (cell culture inserts) was stored in the refrigerator (4° C.) prior to use. […] After this, 100 μl of the reacted MTS solution from each well was pipetted into a marked 96-well microtiter plate for spectrophotometer reading (SPR) at 490 nm using Microplate Power Wave X Scanning Spectrophotometer (Bio-TEK Instruments, Inc., Winooski, Vt.). […] The EpiOral tissue % viability at each of the dosed concentrations was calculated using the following formula: […]
# Dose response curve was established using a semi-log scale to plot % viability (linear y axis) vs. the dosing time (log x axis). […] All the SPR were deducted from blank readings for viability and ET-50 value final calculations. […]
# [8] = Control (untreated passive), 8 h (Tables 19-21)
# [9] = iontophoresis 0.3 mA for 8 h (Tables 19-21)
# [10] = iontophoresis 0.3 mA for 8 h, listed as nicotine hydrogen tartrate, tartrate
# [11] = iontophoresis 0.3 mA for 8 h, tartrate
# [12] = Stage II after 8 h iontophoresis 0.2 mA
# [13] = in words, 1 hr. enhancer pretreatment, compared to control
compound,measurement,setting,value
"CN1CCCC1c1cccnc1.O=C(O)C(O)C(O)C(=O)O (stereo not shown) [Nicotine Hydrogen Tartrate, Nicotine hydrogen tartrate]",solubility,[1],soluble in water
same,Q8,[2]; [8],6.9 ± 2.6^ μg/cm^2
same,Flux,"[2]; Control (untreated passive), 8 h, […] LHCl, 2% NHT or 2% DHCl gel, listed as nicotine hydrogen tartrate, tartrate",0.9 ± 0.4 μg/cm^2*h
same,Flux,[2]; iontophoresis 0.1 mA for 8 h,17.6 ± 6.9^b μg/cm^2*h
same,Q8,[2]; [9],629.5 ± 276.8^b μg/cm^2
same,Flux,[2]; [10],81.7 ± 35.9^c μg/cm^2*h
same,Flux,[2]; [11],81.7 ± 35.9^b μg/cm^2*h
same,Flux,"[3]; Control (untreated passive), 8 h, […] LHCl, 2% NHT or 2% DHCl gel",1.3 ± 1.9 μg/cm^2*h
same,Q8,"[3]; Control (untreated passive), 8 h, tartrate",9.9 ± 14.6 μg/cm^2
same,Flux,[3]; iontophoresis 0.1 mA for 8 h,56.1 ± 11.4^b μg/cm^2*h
same,Q8,[3]; iontophoresis 0.1 mA for 8 h,433.2 ± 85.4^b μg/cm^2
same,Flux,[3]; [10],138.4 ± 72.3^c μg/cm^2*h
same,Q8,[3]; [10],1326.6 ± 186.2^c μg/cm^2
same,Flux,[3]; [11],138.4 ± 72.3^b μg/cm^2*h
same,Q8,[3]; [11],1326.6 ± 186.2^b μg/cm^2
"COc1ccc([C@@H]2Sc3ccccc3N(CCN(C)C)C(=O)[C@@H]2OC(C)=O)cc1 [Diltiazem HCl, 1,5-Benzothiazepin-4(5H) one, 3-(acetyloxy)-5-[2-(dimethylamino)ethyl]-2,3-dihyro-2-(4-methoxyphenyl)-, monohydrochloride, (+)-cis-]",solubility,[1],"soluble in water, methanol, and chloroform"
"Cc1nccn1CC1CCc2c(c3ccccc3n2C)C1=O (racemic) [ODAN•HCl, (±) 1,2,3,9-tetrahydro-9-methyl-3-[(2-methyl-1H-imidazol-1-yl)methyl]-4H-carbazol-4-one, monohydrochloride, dihydrate]",morphology of buccal tissue compared to untreated,[4],no major morphological changes
same,Q8,"[5]; 0.5% ODAN.HCl gel, Stage I, Control (passive)",25.5 ± 5.1 µg/cm²
same,Flux,"[5]; 0.5% ODAN.HCl gel, Stage I, iontophoresis 0.1 mA",10.6 ± 4.5^b μg/cm^2/h
same,Flux,"[5]; 0.5% ODAN.HCl gel, Stage I, iontophoresis 0.2 mA",16.5 ± 6.5^b μg/cm^2/h
same,Flux,"[5]; 0.5% ODAN.HCl gel, Stage I, iontophoresis 0.3 mA",22.8 ± 4.6^b μg/cm^2/h
same,ER,"[5]; Stage I, Control (reference)",1
same,Q8,"[5]; Stage I, iontophoresis 0.1 mA",83.3 ± 33.5 µg/cm²
same,ER,"[5]; Stage I, iontophoresis 0.1 mA, flux vs control",3.3
same,Q8,"[5]; Stage I, iontophoresis 0.2 mA",133 ± 50.1 µg/cm²
same,ER,"[5]; Stage I, iontophoresis 0.2 mA, flux vs control",5.2
same,Q8,"[5]; Stage I, iontophoresis 0.3 mA",190 ± 42.7 µg/cm²
same,ER,"[5]; Stage I, iontophoresis 0.3 mA, flux vs control",7.1
same,Flux,"[5]; Stage II (8-24 h, passive) after 8 h iontophoresis 0.1 mA",13.7 ± 4.3^b μg/cm^2/h
same,Q24,[5]; Stage II after 8 h iontophoresis 0.1 mA,297 ± 90.1 µg/cm²
same,ER,"[5]; Stage II after 8 h iontophoresis 0.1 mA, flux vs control",2.8
same,Flux,[5]; [12],12.7 ± 5.3^b μg/cm^2/h
same,Q24,[5]; [12],337 ± 130 µg/cm²
same,ER,"[5]; Stage II after 8 h iontophoresis 0.2 mA, flux vs control",2.6
same,Q24,[5]; Stage II after 8 h iontophoresis 0.3 mA,380 ± 68.1 µg/cm²
same,ER,"[5]; Stage II after 8 h iontophoresis 0.3 mA, flux vs control",2.4
same,Flux,"[5]; Stage II after 8 h iontophoresis 0.3 mA, listed as ODAN.HCl, monohydrochloride, dihydrate",11.9 μg/cm^2/h
same,Flux,"[5]; Stage II after 8 h iontophoresis 0.3 mA, monohydrochloride, dihydrate",11.9 ± 2.3^b μg/cm^2/h
same,Q24,"[5]; Stage II, Control (passive)",105 ± 22.8 µg/cm²
same,ER,"[5]; Stage II, Control (reference)",1
CS(C)=NC(=O)c1ccc(Br)cc1 [Br-iminosulfurane],enhancement effect on transbuccal delivery of LHCl,[2]; [13],enhanced
same,enhancement effect on transbuccal delivery of NHT,[2]; [13],no enhancement effect
same,enhancement effect on transdermal delivery of LHCl,[3],enhanced
same,enhancement effect on transdermal delivery of NHT,[3],no enhancement effect
same,aqueous solubility,[6],low aqueous solubilities
"CCCCCCCCCCCCN1CCCCCC1=O [Azone, 1-Dodecylazacycloheptan-2-one]",enhancement effect on transbuccal delivery of NHT,[2]; [13],no enhancement effect
same,enhancement effect on transdermal delivery of NHT,[3],no enhancement effect
"CCCCCCCCCCCCOC(=O)C(C)N(C)C (stereo not shown) [DDAIP, dodecyl 2-(N,N dimethylamino) propionate]",enhancement effect on transbuccal delivery of DHCl,[2]; [13],had enhancement effect
same,enhancement effect on transbuccal delivery of LHCl,[2]; [13],had enhancement effect
same,enhancement effect on transdermal delivery of DHCl,[3],had enhancement effect
same,enhancement effect on transdermal delivery of LHCl,[3],had enhancement effect
same,enhancement effect on transdermal delivery of NHT,[3],no enhancement effect
same,aqueous solubility,[6],low aqueous solubilities
same,effectiveness in enhancing ODAN.HCl permeability across porcine buccal tissues,"[5]; in words, summary of Example 6",only marginally effective
"CCCCCCCCCCCCOC(=O)C(C)N(C)C.Cl (stereo not shown) [DDAIP.HCl, dodecyl-2-N,N-dimethylaminopropionate hydrochloride]",effect on viability of EpiOral tissue compared to water,[7],did not reduce the viability
same,enhancement effect on transdermal delivery of DHCl,[3],no enhancement effect
same,enhancement effect on transdermal delivery of LHCl,[3],no enhancement effect
same,enhancement effect on transdermal delivery of NHT,[3],no enhancement effect
"CCN(CC)CC(=O)Nc1c(C)cccc1C [Lidocaine HCl, 2-(Diethylamino)-2′,6′-acetoxylidide mono-hydrochloride, monohydrate]",Q8,[2]; [8],345.6 ± 74.3^ μg/cm^2
same,Flux,"[2]; Control (untreated passive), 8 h, […] LHCl, 2% NHT or 2% DHCl gel, listed as lidocaine HCl, mono-hydrochloride, monohydrate",44.7 ± 9.6 μg/cm^2*h
same,Flux,[2]; iontophoresis 0.1 mA for 8 h,137.1 ± 13.1^b μg/cm^2*h
same,Q8,[2]; [9],1910.2 ± 454.7^b μg/cm^2
same,Flux,"[2]; iontophoresis 0.3 mA for 8 h, listed as lidocaine HCl, mono-hydrochloride, monohydrate",241.7 ± 60.5^c μg/cm^2*h
same,Flux,"[2]; iontophoresis 0.3 mA for 8 h, mono-hydrochloride, monohydrate",241.7 ± 60.5^b μg/cm^2*h
